This passage reports IC50 results from BindingDB's records for doi:10.1016/j.bioorg.2015.09.001 (Universiti Teknologi Mara (Uitm), 2015).

The target in this assay is Alpha-glucosidase MAL12 (Saccharomyces cerevisiae (strain ATCC 204508 / S288c), UniProt P53341). The experiment in a line: α-Glucosidase Inhibitory Activity. The protocol: The 135 µL of 50 mM phosphate saline buffer pH (6.8) was added in the 96-well plate and 20 µL of test sample with 70% DMSO added into the wells. The solution of Enzyme 20 µL was added into the wells, and incubated the plate for 15 min. After incubation pre-read of the plate was taken by the spectra max. Afterward 25 µL of the substrate (pNPG) was added and a reading was taken on spectra max at 400 nm for 30 min. The normal reading is taken and the percent inhibition was calculated.
Chain of Alpha-glucosidase MAL12 (P53341 whole entry): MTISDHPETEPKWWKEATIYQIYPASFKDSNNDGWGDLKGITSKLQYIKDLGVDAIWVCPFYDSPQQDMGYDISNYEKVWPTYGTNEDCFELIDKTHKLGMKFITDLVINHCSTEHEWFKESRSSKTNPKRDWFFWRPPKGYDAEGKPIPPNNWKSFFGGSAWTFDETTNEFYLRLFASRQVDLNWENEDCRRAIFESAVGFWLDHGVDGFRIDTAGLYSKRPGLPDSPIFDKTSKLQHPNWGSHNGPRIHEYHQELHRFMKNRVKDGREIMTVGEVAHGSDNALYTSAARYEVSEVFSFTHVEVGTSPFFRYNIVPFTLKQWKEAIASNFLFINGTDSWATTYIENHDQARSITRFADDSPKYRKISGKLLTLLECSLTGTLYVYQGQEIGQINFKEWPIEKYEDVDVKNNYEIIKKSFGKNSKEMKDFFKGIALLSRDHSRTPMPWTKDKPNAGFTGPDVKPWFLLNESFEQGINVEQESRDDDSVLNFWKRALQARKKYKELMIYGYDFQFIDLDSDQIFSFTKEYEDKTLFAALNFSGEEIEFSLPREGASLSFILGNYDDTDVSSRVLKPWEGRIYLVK
By IC50 is commonly meant the concentration at which inhibition is half-maximal. Read a high IC50 as weaker potency in that assay. For `O=C(N/N=C/c1c(O)cc(O)cc1O)c1cc2ccccc2[nH]1` [(E)-N'-(2,4,6-trihydroxybenzylidene)-1H-indole-2-carbohydrazide (2)], the 50% inhibitory concentration (IC50) is 49.2 µM.

As to `O=C(N/N=C/c1cccc(O)c1O)c1cc2ccccc2[nH]1` [(E)-N'-(2,3-dihydroxybenzylidene)-1H-indole-2-carbohydrazide (6)], 86.5 µM corresponded to half-maximal inhibition (IC50). Consider `O=C(N/N=C/c1ccc(O)c(O)c1)c1cc2ccccc2[nH]1` [(E)-N'-(3,4-dihydroxybenzylidene)-1H-indole-2-carbohydrazide (4)], for which the half-inhibitory concentration (IC50) came to 41 µM. As to `COc1ccc(/C=N/NC(=O)c2cc3ccccc3[nH]2)c(I)c1O` [(E)-N'-(3-hydroxy-2-iodo-4-methoxybenzylidene)-1H-indole-2-carbohydrazide (14)], inhibition was half-maximal at 54.6 µM (IC50). Next, `O=C(N/N=C/c1ccccc1O)c1cc2ccccc2[nH]1` [(E)-N'-(2-hydroxybenzylidene)-1H-indole-2-carbohydrazide (10)]: 42.6 µM; `COc1cc(/C=N/NC(=O)c2cc3ccccc3[nH]2)ccc1O` [(E)-N'-(4-hydroxy-3-methoxybenzylidene)-1H-indole-2-carbohydrazide (8)]: 155 µM; `O=C(N/N=C/c1cc(O)ccc1O)c1cc2ccccc2[nH]1` [(E)-N'-(2,5-dihydroxybenzylidene)-1H-indole-2-carbohydrazide (3)]: 144 µM.

In the case of `O=C(N/N=C/c1ccc(F)c(Br)c1)c1cc2ccccc2[nH]1` [(E)-N'-(3-Bromo-4-fluorobenzylidene)-1H-indole-2-carbohydrazide (19)], 26.6 µM corresponded to half-maximal inhibition (IC50). `O=C(N/N=C/c1ccc(Cl)cc1)c1cc2ccccc2[nH]1` [(E)-N'-(4-Chlorobenzylidene)-1H-indole-2-carbohydrazide (27)] showed a half-maximal inhibitory concentration (IC50) of 32.1 µM. Next, `O=C(N/N=C/c1cc(O)c(O)c(O)c1)c1cc2ccccc2[nH]1` [(E)-N'-(3,4,5-trihydroxybenzylidene)-1H-indole-2-carbohydrazide (1)]: 2.3 µM. For the compound `COc1ccc(/C=N/NC(=O)c2cc3ccccc3[nH]2)cc1O` [(E)-N'-(3-hydroxy-4-methoxybenzylidene)-1H-indole-2-carbohydrazide (11)], 191 µM corresponded to half-maximal inhibition (IC50). The compound `O=C(N/N=C/c1ccc(O)cc1)c1cc2ccccc2[nH]1` [(E)-N'-(4-hydroxybenzylidene)-1H-indole-2-carbohydrazide (9)] displayed an IC50 of 206 µM. Next, `O=C(N/N=C/c1cc(O)cc(O)c1)c1cc2ccccc2[nH]1` [(E)-N'-(3,5-dihydroxybenzylidene)-1H-indole-2-carbohydrazide (7)]: 226 µM; `COc1ccc(O)c(/C=N/NC(=O)c2cc3ccccc3[nH]2)c1` [(E)-N'-(2-hydroxy-5-methoxybenzylidene)-1H-indole-2-carbohydrazide (13)]: 49.2 µM.
